Some test systems named below: NCI/ADR-RES ovarian; SNB-75 CNS; NCI-H522 lung; SK-MEL-28 melanoma; OVCAR-3 ovarian; COLO 205 colon; BT-549 breast; OVCAR-8 ovarian; SW-620 colon; HL-60(TB) leukemia.
Test in all cases: NCI anticancer screen, dose series, 48 h

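Five compound concentrations were applied to cells in 96-well plates for 48 hours; endpoints were derived by simple linear interpolation of the resulting dose-response curve. Abbreviation: GI50, concentration required for 50% inhibition of growth. TGI marks complete inhibition of growth.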

For `COc1cccc(C2C3=C(COC3=O)N(CCO)c3cc(OC)ccc32)c1` (centres undefined), the GI50 is 0.0908 µM in the assay on NCI/ADR-RES ovarian; 0.0671 µM in the assay with SNB-75 CNS; 0.0307 µM with NCI-H522 lung; 0.13 µM in the assay on SK-MEL-28 melanoma; 0.0347 µM with OVCAR-3 ovarian; 0.107 µM with COLO 205 colon. In addition, the GI50 with BT-549 breast was 0.295 µM; in the assay on OVCAR-8 ovarian, 0.206 µM; with SW-620 colon it was 0.0863 µM; in the assay with HL-60(TB) leukemia, 0.276 µM. Also, the TGI in the assay with SNB-75 CNS was greater than 100 µM; with NCI-H522 lung, 1.44 µM; in the assay on SK-MEL-28 melanoma, greater than 100 µM; in the assay with OVCAR-3 ovarian, 0.166 µM; in the assay on COLO 205 colon, 0.755 µM; in the assay with BT-549 breast it was greater than 28.5 µM. The TGI in the assay on OVCAR-8 ovarian, with SW-620 colon and in the assay with HL-60(TB) leukemia was greater than 100 µM each time.

In the case of `CC(C)Nc1ccc(Nc2ccccc2)cc1`, the GI50 was 9.8 µM with NCI/ADR-RES ovarian; 21.5 µM with SNB-75 CNS; 13.7 µM in the assay on NCI-H522 lung; 28.1 µM in the assay with SK-MEL-28 melanoma; 9.49 µM with OVCAR-3 ovarian; 14.3 µM with COLO 205 colon. Moreover, the GI50 is 11.3 µM in the assay with BT-549 breast, 11.6 µM in the assay with OVCAR-8 ovarian, 15.8 µM with SW-620 colon and 17.7 µM with HL-60(TB) leukemia. Besides, the TGI is 65.3 µM in the assay with NCI/ADR-RES ovarian; greater than 100 µM with SNB-75 CNS; 28.8 µM in the assay on NCI-H522 lung; 95.1 µM with SK-MEL-28 melanoma; 21.8 µM in the assay on OVCAR-3 ovarian; 31.3 µM in the assay on COLO 205 colon. The TGI in the assay with BT-549 breast worked out at 33.9 µM; in the assay with OVCAR-8 ovarian, 26.5 µM; in the assay with SW-620 colon, 45.8 µM; in the assay on HL-60(TB) leukemia, 51.3 µM.

With `N#Cc1cccc(OCc2nc(N)nc(N)c2-c2ccc(Cl)c(Cl)c2)c1`, the GI50 with NCI/ADR-RES ovarian is 1.19 µM; in the assay on SNB-75 CNS, 5.67 µM; with NCI-H522 lung, 5.62 µM; in the assay on SK-MEL-28 melanoma, 14.5 µM; in the assay on OVCAR-3 ovarian, 5.53 µM; with COLO 205 colon it was 5.3 µM. Moreover, the GI50 with BT-549 breast was 3.01 µM; in the assay on OVCAR-8 ovarian, 0.765 µM; in the assay on SW-620 colon, 0.484 µM; in the assay on HL-60(TB) leukemia it was 1.55 µM. The TGI in the assay on NCI/ADR-RES ovarian, in the assay on SNB-75 CNS, in the assay with NCI-H522 lung, in the assay on SK-MEL-28 melanoma, in the assay with OVCAR-3 ovarian and in the assay on COLO 205 colon was greater than 100 µM each time. Moreover, the TGI in the assay with BT-549 breast, in the assay on OVCAR-8 ovarian, in the assay on SW-620 colon and in the assay with HL-60(TB) leukemia was greater than 100 µM in each case.

In the case of `CCCCCc1nc2c(c3c1CCCC3)CCCC2`, the GI50 with NCI/ADR-RES ovarian is 3.91 µM; in the assay with SNB-75 CNS, 13.3 µM; in the assay with NCI-H522 lung, 2.84 µM; in the assay on SK-MEL-28 melanoma, 14.8 µM; with OVCAR-3 ovarian, 4.7 µM; with COLO 205 colon, 10.2 µM. Also, the GI50 in the assay with BT-549 breast was 10.7 µM; with OVCAR-8 ovarian it was 10.1 µM; in the assay with SW-620 colon, 11.2 µM; in the assay on HL-60(TB) leukemia, 5.8 µM. Further, the TGI with NCI/ADR-RES ovarian came to 22.6 µM; in the assay on SNB-75 CNS, 51.7 µM; with NCI-H522 lung it was 17.9 µM; with SK-MEL-28 melanoma, 36.2 µM; with OVCAR-3 ovarian, 17.8 µM; with COLO 205 colon, 22.1 µM. Moreover, the TGI in the assay on BT-549 breast stood at 24.4 µM; in the assay with OVCAR-8 ovarian, 36.9 µM; in the assay on SW-620 colon, 27.3 µM; in the assay with HL-60(TB) leukemia, 29.4 µM.

Regarding `COc1ccc2c(c1)=C(C=C1C=CN(O)C=C1)C(=O)N=2`, the GI50 in the assay with NCI/ADR-RES ovarian is 30.3 µM; in the assay on SNB-75 CNS, 15.6 µM; in the assay on NCI-H522 lung, 20.5 µM; in the assay on SK-MEL-28 melanoma, 27 µM; in the assay on OVCAR-3 ovarian, 26.2 µM; in the assay with COLO 205 colon it was 3.84 µM. Besides, the GI50 in the assay with BT-549 breast is 22.6 µM; with OVCAR-8 ovarian it was 29.9 µM; in the assay with SW-620 colon, 25.5 µM; in the assay with HL-60(TB) leukemia it was 22.4 µM. Besides, the TGI was greater than 86.9 µM in the assay on NCI/ADR-RES ovarian; greater than 88.4 µM in the assay with SNB-75 CNS; 61.6 µM in the assay on NCI-H522 lung; greater than 100 µM in the assay with SK-MEL-28 melanoma; greater than 78.1 µM with OVCAR-3 ovarian; 32.8 µM in the assay with COLO 205 colon. Also, the TGI in the assay with BT-549 breast was 88.1 µM; in the assay on OVCAR-8 ovarian it was 99.7 µM; in the assay with SW-620 colon, greater than 67.8 µM; in the assay on HL-60(TB) leukemia, 49.9 µM.

With `Oc1ccc(CN2CCC(N3CCOCC3)CC2)c2cccnc12`, the GI50 was 29.2 µM in the assay with NCI/ADR-RES ovarian; 11.9 µM in the assay on SNB-75 CNS; 26.5 µM in the assay with NCI-H522 lung; 37.6 µM in the assay with SK-MEL-28 melanoma; 31.5 µM in the assay with OVCAR-3 ovarian; 49.8 µM in the assay on COLO 205 colon. Further, the GI50 was 31.9 µM with BT-549 breast, 34.3 µM with OVCAR-8 ovarian, 60 µM in the assay with SW-620 colon and 22.7 µM in the assay on HL-60(TB) leukemia. Also, the TGI in the assay on NCI/ADR-RES ovarian is greater than 100 µM; in the assay with SNB-75 CNS, greater than 100 µM; in the assay on NCI-H522 lung, 61.2 µM; in the assay on SK-MEL-28 melanoma, greater than 100 µM; in the assay on OVCAR-3 ovarian, greater than 100 µM; in the assay on COLO 205 colon, greater than 100 µM. Besides, the TGI with BT-549 breast is greater than 100 µM; with OVCAR-8 ovarian it was greater than 100 µM; in the assay with SW-620 colon, greater than 100 µM; in the assay on HL-60(TB) leukemia, 51 µM.

For the compound `Nc1ncnc2c1ncn2Cc1ccc(C23CC4CC(CC(C4)C2)C3)c(OCc2cc(F)c(F)cc2F)c1`, the GI50 in the assay on NCI/ADR-RES ovarian is 6.49 µM; in the assay with SNB-75 CNS, greater than 100 µM; with NCI-H522 lung it was 7.86 µM; with SK-MEL-28 melanoma, greater than 100 µM; with OVCAR-3 ovarian, 3.27 µM; in the assay on COLO 205 colon, 14.4 µM. Also, the GI50 is greater than 100 µM in the assay on BT-549 breast, 9.66 µM in the assay with OVCAR-8 ovarian, 7.25 µM in the assay on SW-620 colon and 3.06 µM in the assay with HL-60(TB) leukemia. Further, the TGI in the assay with NCI/ADR-RES ovarian, with SNB-75 CNS, with NCI-H522 lung, in the assay on SK-MEL-28 melanoma, in the assay on OVCAR-3 ovarian and with COLO 205 colon was greater than 100 µM throughout. Also, the TGI was greater than 100 µM in the assay with BT-549 breast, greater than 100 µM in the assay with OVCAR-8 ovarian, greater than 100 µM in the assay with SW-620 colon and 10.7 µM with HL-60(TB) leukemia.

For the origin of these results see PubChem BioAssay (NCI).
